In US20140378406A1, “SILVER BASED GELS FOR ANTIMICROBIAL APPLICATIONS” (The University of Akron, priority 2012, published 2014):

Key:
Experiment in all cases: Minimal inhibitory concentration (MIC), CLSI procedures
Type in all cases: cell-based
[1] = system: Staphylococcus aureus
Method: (§1) The combination of aqueous solutions of 50 mM glutathione and 50 mM silver carbene complex SCC22 at ambient conditions in a 1:1.25 ratio (final concentration 20 mM glutathione and 25 mM SCC22) results in a colorless hydrogel material. The gel was tested to determine its minimal inhibitory concentration (MIC) on three bacterial species including Pseudomonas aeruginosa, Staphylococcus aureus, and Escherichia coli using procedures published by the Clinical and Laboratory Standards Institute. The combination of aqueous solutions of 50 mM glutathione and 50 mM silver carbene complex SCC1 at ambient conditions in a 1:1.67 ratio (final concentration 15 mM glutathione and 25 mM SCC1) results in a colorless hydrogel material. The gel was tested to determine its minimal inhibitory concentration (MIC) on three bacterial species including Pseudomonas aeruginosa, Staphylococcus aureus, and Escherichia coli using procedures published by the Clinical and Laboratory Standards Institute. The combination of aqueous solutions of 50 mM glutathione and 50 mM silver carbene complex SCC8 at ambient conditions in a 1:1.25 ratio (final concentration 20 mM glutathione and 25 mM SCC8) results in a colorless hydrogel material (GSH8). The gel was tested to determine its minimal inhibitory concentration (MIC) on three bacterial species including Pseudomonas aeruginosa, Staphylococcus aureus, and Escherichia coli using procedures published by the Clinical and Laboratory Standards Institute.

[2] = system: Pseudomonas aeruginosa
Method: as §1

[3] = system: Escherichia coli
Method: as §1

NC[C@H]1O[C@H](O[C@H]2[C@H](O)[C@@H](O[C@H]3O[C@H](CO)[C@@H](O)[C@H](N)[C@H]3O)[C@H](N)C[C@@H]2N)[C@H](N)C[C@@H]1O [Tobramycin]
4 µg/mL: MIC S. aureus [1] | MIC P. aeruginosa [2] | MIC E. coli [3]
